From patent publication US8242098B2, “Methods of treating hormone-related conditions using thio-oxindole derivatives” (Wyeth LLC, priority 2002, dated 2012)

Assays:
androgen receptor (AR) [1] = target: T1, androgen receptor (AR) (Mus musculus, UniProt P19091); assay: Anti-androgenic activity, PRE-tk-luciferase reporter in L929 cells co-treated with 3 nM DHT; type: cell-based; settings: nine point dose response
T1 construct: in the L929 cells which express the AR but not the PR; endogenous in cells; host or cells: L929 cells
T1 sequence (P19091 1-899): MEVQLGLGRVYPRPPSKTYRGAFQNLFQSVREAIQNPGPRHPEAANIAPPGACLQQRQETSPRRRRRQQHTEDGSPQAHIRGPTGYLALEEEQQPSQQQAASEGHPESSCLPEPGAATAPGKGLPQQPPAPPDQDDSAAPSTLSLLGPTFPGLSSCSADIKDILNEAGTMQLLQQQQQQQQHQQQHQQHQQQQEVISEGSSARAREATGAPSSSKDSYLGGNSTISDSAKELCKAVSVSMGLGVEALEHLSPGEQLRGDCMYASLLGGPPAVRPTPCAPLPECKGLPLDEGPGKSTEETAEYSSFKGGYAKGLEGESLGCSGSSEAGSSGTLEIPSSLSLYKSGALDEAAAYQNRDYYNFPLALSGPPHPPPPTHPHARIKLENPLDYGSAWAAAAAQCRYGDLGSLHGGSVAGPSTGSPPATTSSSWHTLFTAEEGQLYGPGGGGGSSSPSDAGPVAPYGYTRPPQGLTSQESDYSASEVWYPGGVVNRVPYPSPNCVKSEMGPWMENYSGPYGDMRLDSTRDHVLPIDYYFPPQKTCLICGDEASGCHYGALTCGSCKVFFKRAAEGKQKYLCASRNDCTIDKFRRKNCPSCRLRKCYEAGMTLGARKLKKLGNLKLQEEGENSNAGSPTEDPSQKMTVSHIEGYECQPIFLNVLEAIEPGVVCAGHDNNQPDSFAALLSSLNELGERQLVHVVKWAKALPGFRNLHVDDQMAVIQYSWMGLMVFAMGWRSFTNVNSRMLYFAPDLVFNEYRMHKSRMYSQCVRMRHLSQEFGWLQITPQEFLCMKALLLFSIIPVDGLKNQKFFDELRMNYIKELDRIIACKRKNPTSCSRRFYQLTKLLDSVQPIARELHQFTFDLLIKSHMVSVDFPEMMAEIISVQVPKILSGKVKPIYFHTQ
Procedure: (§1) The androgen receptor (AR) agonistic and antagonistic activity of the compositions of the invention in the L929 cells which express the AR but not the PR was evaluated as described in Zhang et al., Steroids, 65(10-11): 637-643 (October-November 2000).
(§2) Cells were plated in 96-well plates at 25,000 cells/well in DMEM (BioWhittaker) with 10% (v/v) fetal bovine serum (FBS). The next day, cells were infected with the adenovirus PRE-tk-luciferase reporter construct (2×10^9 pfu/ml particles) and kept in DMEM containing 10% charcoal stripped FBS for an additional 24 hours. […] To test the anti-androgenic activity, cells were co-treated with 3 nM DHT. Luciferase activity was measured 24 hours following the treatment.

androgen receptor (AR) [2] = target: T1, androgen receptor (AR); assay: AR agonistic activity, PRE-tk-luciferase reporter in L929 cells; type: cell-based; settings: at the maximum concentration tested (i.e., 10 nM)
Procedure: as §1, §2

antagonistic activity (androgen receptor (AR) [1]): significant antagonistic activity
agonistic activity (androgen receptor (AR) [2]): only marginal agonistic activity
Compound: Cn1c(C#N)ccc1-c1ccc2c(c1)C1(CCCCC1)C(=NC#N)N2 [5′-(5-Cyano-1-methyl-1H-pyrrol-2-yl)spiro[cyclohexane-1,3′-[3H]indol]-2′-ylidenecyanamide]
